Source: patent publication US20160281089A1, “PREVENTION OF VIRAL INFECTIVITY” (priority 2005, published 2016)

Key:
[1] = tested on: SFFV; experiment: Survival of SFFV-infected DBA/2 mice treated with ODN M at times 0 and 1 hour; format: in vivo; details: ODN M 1 mg at 0 and 1 hour, i.p.
Protocol: We also monitored survival of SFFV-infected mice treated with and without ODN M at times 0 and 1 hour, in this case DBA/2 mice and by i.p. route (FIG. 11b).
Five mice each received 300 μl SFFV (1:100) i.p. supplemented with or without ODN M and 1 h later a second dose of ODN M (1 mg each). Survival was monitored until day 68. The spleen weights at death are indicated as numbers on the graph.

[2] = target: T1, recombinant M-MuLV RT/RNase H (Moloney murine leukemia virus, UniProt P03355); experiment: In vitro cleavage of synthetic SFFV PPT-RNA with recombinant M-MuLV RT/RNase H; format: biochemical; details: 5'-end-labelled RNA
T1 construct: The 80 kDa RT/RNase H of M-MuLV is a monomer
Source text: To test, whether ODN M would have similar effects as ODN A, we tested the ability of ODN M to induce cleavage of SFFV RNA in the presence of the recombinant M-MuLV RT/RNase H. We used synthetic 5′-end-labelled RNA, which contains the extended PPT of SFFV and sequences of the viral genome dose to the PPT. […] M-MuLV RT/RNase H induced ODN M-mediated cleavage in a dose-dependent manner (FIG. 8b left). The cleavage induced by the various ODNs leads to degradation of the SFFV PPT-RNA in vitro as shown (FIG. 8b right). […] We concluded that SFFV could serve as model for HIV.
a. 5′-labeled synthetic PPT-RNAs of SFFV (left) and HIV-1 (right) were annealed and cleaved with recombinant M-MuLV or HIV-1 RT/RNase H in the absence or presence of ODN M or ODN A. Cleavage products were analyzed by 8M urea-containing PAGE (6%). Filled arrowheads correspond to the specific RT/RNase H cleavage sites, open arrowheads to additional cleavage sites. RNase T1-digested RNA (RNase T1) served as marker. M indicates the Decade Marker.
b. Titration of recombinant M-MuLV RT/RNase H in the presence of ODN M (50 nM) and 5′-labeled SFFV-PPT-RNA. […] 5′-labeled SFFV-PPT-RNA or control RNA without PPT (Con.) were hybridized with the ODNs and treated with and without MuLV RT/RNase H for in vitro cleavage as indicated and analyzed by 8M urea-containing PAGE (10%, right).

[3] = tested on: SFFV; experiment: NIH 3T3 cells infected with SFFV for 2 h and then treated; format: cell-based; details: treatment 2 h after infection, three concentrations, no carrier, three days post-infection
Protocol: In the next experiment NIH 3T3 cells were infected with SFFV for 2 h and then treated with three different concentrations each of ODN M, asPPT, and three different siRNAs.
c. NIH-3T3 cells were infected with SFFV for 2 hours and then treated with three decreasing concentrations of ODN M, asPPT and three different PPT-specific siRNAs. RNA was isolated from supernatants three days post-infection and analyzed by real time RT-PCR.

[4] = tested on: SFFV virions; experiment: Permeabilized cell-free SFFV virions incubated with ODNs, undigested RNA by real-time PCR; format: biochemical; details: 5 μM ODN, compared to control ODNs or asPPT
Protocol: In order to further characterize antiviral effects of ODNs, we tested ODN M, asPPT and structural analogs of ODN M in SFFV virions, which contain endogenous RT/RNase H and have an appropriate secondary structure of the RNA. Permeabilized virions were incubated with ODNs, viral RNA was then purified, reverse transcribed and the amount of undigested RNA was quantified by real-time PCR using a set of primers harboring the PPT region of the SFFV genome. […] We observed differences in the antiviral activities between various ODNs. […] Thus, the presence as well as the sequences of both strands of the ODN contributed to the antiviral effect. We noticed previously that the second arm of the ODN is more important intracellularly than in vitro.
a. Cell-free SFFV virions (1×10^3 FFU in 20 μl) were permeabilized and incubated with the indicated ODNs (5 μM). RNA was extracted three days post-treatment and analyzed by quantitative real-time RT-PCR shown as bars (top) and RT-PCR shown as amplifications products on a 1.5% agarose gel (bottom).

[5] = target: RT/RNaseH (Human immunodeficiency virus type 1 group M subtype B, UniProt P04585); experiment: RNase H cleavage assay with synthetic 5'-end-labelled RNA and RT/RNaseH; format: biochemical, HIV-1; design: the HIV RT/RNase H is a heterodimer of p66 and p51 with and without RNase H; details: for RT/RNaseH cleavage of RNA2 (contains extended PPT): 10 nM 5'-labelled RNA2
Source text: We used synthetic 5′-end-labelled RNA2, which contains the extended PPT and sequences of the viral genome close to the PPT. […] For the present study we used low concentrations of the ODNs.
To test whether an ODN-mediated activity would preferentially occur at the PPT, we analysed ODNs targeted to the extended PPT (ODN A) or to a region outside of the PPT (ODN CO and an external antisense oligodeoxynucleotide asEXT) in vitro. We used RNA2, which contains the PPT and the binding sites for ODN A, asEXT and ODN CO. […] Indeed, in the reaction mixture containing both ODN A and asEXT primers, extension products, predominantly synthesized by the RT/RNaseH, started with ODN A and not asEXT (FIG. 2B). […] Thus, the ability of the ODN A to mediate RT/RNaseH-dependent cleavage of the viral RNA is PPT-dependent.
(A) Cleavage assay. 10 nM of in vitro transcribed 5′-labeled RNA was hybridized with 10, 100 and 1000 nM of ODN A and incubated in the presence of RT/RNaseH. The cleavage products were analyzed by denaturing PAGE as described in Materials and methods. (B). Primer extension assay. Synthetic RNA2 was hybridized with ODN A, antisense primer (asEXT) or both primers combined, and the primer extension was performed as described in Materials and Methods. Elongation products were analysed by 8 M urea/10% PAGE. (C) Cleavage assay. RNA/ODN hybrids, obtained using 10 nM of RNA2 and 10 nM of ODN A, asPPT or ODN CO were incubated with RT/RNaseH and cleavage products were analyzed by denaturing PAGE as described in Materials and methods. Cleavage or extension products are presented schematically to the right of each blot. Cleavage sites are indicated by arrows and labelled cleavage products are shown by black lines. Dots on extension products indicate the incorporated labelled dATPs.

| Sequence | survival time [1] | number of treated mice with prolonged survival ([1]; DBA/2 mice) | survival of the surviving mice ([1]; untreated mice died after 20 to 30 days) | cleavage of synthetic SFFV PPT-RNA [2] | antiviral effect, SFFV RNA in supernatants [3] | amount of intact SFFV RNA in virions (antiviral activity) [4] | RT/RNaseH cleavage of RNA2 (contains extended PPT) ([5]; 10 nM ODN) | cleavage of RNA2 compared to control ODN CO ([5]; 10 nM RNA2, 10 nM ODN, FIG. 2C) | cleavage of RNA2 compared to single-stranded asPPT ([5]; 10 nM RNA2, 10 nM ODN, FIG. 2C) | RT/RNaseH cleavage of RNA2 (contains extended PPT) ([5]; 1 μM ODN) | ODN-mediated cleavage of RNA3 (no PPT sequence) ([5]; RNA3 without PPT) |
| --- | --- | --- | --- | --- | --- | --- | --- | --- | --- | --- | --- |
| TCTTTTTGGGGGGTTTGTTTGTTTTTTCTTTCATTCCCCCCTTTTTCT (chemistry not given here) [ODN M, 22-mer antisense and 22-mer second strand connected by T4, targeted to extended PPT of SFFV] | almost doubled | Two out of five | more than 60 days | cleaved | slightly superior to the asPPT but much stronger compared to siRNA | strongest effect | – | – | – | – | – |
| TTTTCTTTTGGGGGGTTTGGTTGGGTTTTCCCTTCCAGTCCCCCCTTTTCTTTT (phosphorothioate linkages, further chemistry not given here) [ODN A, 25 mer antisense and 25 mer passenger strand connected by T4, phosphorothioated at each end and in linker, targeted to extended PPT of HIV-1] | – | – | – | – | – | – | cleaved | more efficient cleavage | slightly stronger | not | not affected |
